Reference: US5610159A, “N-oxides of morpholine derivatives and their use as therapeutic agents” (Merck Sharp & Dohme Limited, priority 1995, dated 1997)

Experiment: stability of crystals on storage
Type: physicochemical
Protocol: Dimethylamine (approximately 10 ml) was condensed at -80° C. in a pressure tube and to this was added a solution of N-(4-azidobut-2-ynyl)-2-(R)-(1-(R)-(3,5-bis(trifluoromethyl)phenyl)ethoxy)-3-(S)-(4-fluorophenyl)morpholine (3.2 g) in dioxan (15 ml). The tube was sealed and the solution was heated at 90° C. for 16 h. The solution was evaporated to dryness and the residue chromatographed on silica gel (eluting with 5% methanol in dichloromethane containing 0.25% ammonia (SG. 0.88)) and the fractions containing the desired product were evaporated in vacuo to give the title compound. To a solution of this residue in diethyl ether was added 1M-HCl in methanol. The solution was evaporated to dryness and redissolved in diethyl ether to give crystals of the title compound hydrochloride salt m.p. 194°-198° C., [α]^22D+65.0° (c=0.5, H2 O).

Measured: stability of crystals

C[C@@H](O[C@H]1OCCN(Cc2nn[nH]c2CN(C)C)[C@H]1c1ccc(F)cc1)c1cc(C(F)(F)F)cc(C(F)(F)F)c1 [Description 9]
stable for at least five days: at 40° C. | at 40° C./75% relative humidity | at 80° C. | at 2000LUX
